Entries after “also recorded” stand apart in the source; their conditions may differ.
How the values were obtained:
Format in all cases: in vivo, rat
STZ-diabetic rats [1] = assay: von Frey paw withdrawal thresholds, STZ-diabetic rats given multiple dosing regimens (washout protocol), Example 1; details: gabapentin 100 mg/kg s.c.
Protocol: (§1) Experimental Animals Ethical approval for this study was obtained from the Animal Experimentation Ethics Committee of The University of Queensland. Adult male Sprague-Dawley (SD) rats (222±4 g) were used for this study. Rats were housed in a temperature controlled room (21+2.0 C) with a 12/12 hour light/dark cycle. Food and water were available ad libitum. Initiation of drug administration occurred at 8-11 weeks post-STZ administration for rats in Experiment 1 (PCT-001) and at 10-12 weeks post-STZ administration for rats in Experiment 2 (PCT-007).
(§2) Test Article Tranilast was supplied by the Sponsor and stored at −4° C. until use. Gabapentin (100 mg/kg, dissolved in water for injection) was utilized as the positive control for this study.
(§3) Test Article and Vehicle Preparation Test article formulations were prepared freshly on the day of administration by weighing the appropriate amount of bulk powder and suspending it in the required volume of vehicle. Carboxymethyl cellulose ((CMC) 0.5% in water for injection) was utilized as the vehicle for this study.
(§4) Test Article Administration. […] The maximum oral gavage volume administered in this study was […]. 4.4
(§5) STZ-Diabetic Rat Model of Painful Diabetic Neuropathy. Painful diabetic neuropathy is a common long-term complication of diabetes in humans that develops as a result of a sustained biochemical nerve injury. […] Following the induction of diabetes with intravenous STZ at 70-80 mg/kg, it generally takes 6-8 wks for tactile allodynia, the defining symptom of PDN, to fully develop in both rat hindpaws.
(§6) Induction of STZ-Diabetes in Rats. On day 0, rats were anaesthetized with 3% isoflurane:97% O2 and a short polyethylene cannula (0.5 mm ID, 0.8 mm OD) was inserted into the jugular vein to facilitate the intravenous (i.v.) administration of a single dose of streptozotocin (STZ: 70-80 mg/kg). After STZ injection, the cannula was removed and the jugular vein was tied off and the wound was closed. Rats received subcutaneous benzylpenicillin (60 mg) prior to surgery to prevent infection and were kept warm during surgical recovery. Rats were housed singly prior to further experimentation and were monitored daily from the time of STZ administration with regard to general health and well-being.
(§7) Von Frey Assessment of Paw Withdrawal Thresholds. Calibrated von Frey filaments were used to determine the lowest mechanical threshold required to evoke a brisk paw withdrawal reflex in the rat hindpaws. Briefly, rats were transferred individually to wire mesh testing cages (20 cm×20 cm×20 cm) and allowed to acclimatize for approximately 10-20 min prior to von Frey testing. Commencing with the von Frey filament that produced the 6 g force, the filament was applied to the plantar surface of the hindpaw until the filament buckled slightly. Absence of a response after 3 s prompted use of the next filament of increasing weight. A withdrawal response within 3 s prompted use of the next filament of decreasing weight. Filaments used produced buckling weights of 2, 4, 6, 8, 10, 12, 14, 16, 18 and 20 g. […] Tactile allodynia is regarded as being fully developed when von Frey PWTs in the injured hindpaws are <6 g.
Restoring von-Frey PWTs in the hindpaws from <6 g to pre-STZ surgery levels (12±2 g) is the treatment goal representing full reversal of tactile allodynia. If drug treatment increases PWTs above pre-surgical baseline values (i.e. >12±2 g), such a response is classified as antinociception. Before administration of STZ, baseline von Frey measurements were assessed. Following STZ administration, baseline PWTs were assessed in the hindpaws at week 8-11 to confirm the development of diabetes-induced tactile allodynia. […]

[2] = system: drug-naïve STZ-diabetic rats; assay: von Frey paw withdrawal thresholds, drug-naïve STZ-diabetic rats, Example 2
Protocol: as §1, §2, §3, §4, §5, §6, §7
Restoring von-Frey PWTs in the hindpaws from <6 g to pre-STZ surgery levels (12±2 g) is the treatment goal representing full reversal of tactile allodynia. If drug treatment increases PWTs above pre-surgical baseline values (i.e. >12±2 g), such a response is classified as antinociception. Before administration of STZ, baseline von Frey measurements were assessed. Following STZ administration, baseline PWTs were assessed in the hindpaws at week 8-11 to confirm the development of diabetes-induced tactile allodynia.
Dose-Response Curve for Tranilast in Drug-Naive STZ-Diabetic Rats. […]

STZ-diabetic rats [3] = assay: Behavioural observations / adverse effects in STZ-diabetic rats; details: gabapentin 100 mg/kg s.c., 7 consecutive twice-daily bolus doses
Source text: Behavioural Observations. STZ-diabetic rats were monitored for visible and audible signs of distress throughout the testing period. The visible signs of distress included behavioural changes such as complete immobility, movement with abnormal gait, agitation, aggression, wet dog shakes, excessive grooming, restlessness with constant movement, repeated sudden movements or staring.

[4] = gabapentin 100 mg/kg s.c., 7th twice-daily dose
[5] = gabapentin 100 mg/kg s.c., after 7th consecutive twice-daily dose

## NCC1(CC(=O)O)CCCCC1 [Gabapentin]
STZ-diabetic rats [1]; 7 consecutive twice-daily doses, multiple dosing regimens
  Relief of tactile (mechanical) allodynia in the hindpaws: significant relief of tactile (mechanical) allodynia
STZ-diabetic rats [1]; 7th twice-daily dose, 1 h post-dosing
  Mean (±SEM) PWT at the mean time of peak response: 11.0 (±1.0) g
STZ-diabetic rats [1]; 7th twice-daily dose, multiple dosing regimens
  Time of peak anti-allodynia post-dosing: 0.75 to 1.25 h
STZ-diabetic rats [1]; 7th twice-daily dose, pre-dose
  Mean (±SEM) PWT pre-dose: 4.5 (±0.5) g
[2]; gabapentin 100 mg/kg s.c. twice-daily
  Baseline PWT thresholds assessed prior to dose 1, 3, 5 and 7: not significantly different
[2]; gabapentin 100 mg/kg s.c. twice-daily, prior to dose 1
  Mean (±SEM) von Frey Paw Withdrawal threshold assessed prior to dose: 3.7 ± 0.6 g
[2]; gabapentin 100 mg/kg s.c. twice-daily, prior to dose 3
  Mean (±SEM) von Frey Paw Withdrawal threshold assessed prior to dose: 4.0 ± 0 g
[2]; gabapentin 100 mg/kg s.c. twice-daily, prior to dose 5
  Mean (±SEM) von Frey Paw Withdrawal threshold assessed prior to dose: 4.7 ± 0.5 g
[2]; gabapentin 100 mg/kg s.c. twice-daily, prior to dose 7
  Mean (±SEM) von Frey Paw Withdrawal threshold assessed prior to dose: 4.5 ± 0.4 g
[2]; gabapentin 100 mg/kg s.c. twice-daily, time 0 h (pre-dose)
  Mean (±SEM) von Frey Paw Withdrawal threshold following the 7th consecutive dose: 4.5 ± 0.2 g
[2]; gabapentin 100 mg/kg s.c. twice-daily, time 0 h (pre-dose), listed as gabapentin
  Mean (±SEM) von Frey Paw Withdrawal threshold following the 7th consecutive dose: 4.5 (±0.2) g
[2]; gabapentin 100 mg/kg s.c. twice-daily, time 0.15 h
  Mean (±SEM) von Frey Paw Withdrawal threshold following the 7th consecutive dose: 5.75 ± 0.2 g
[2]; gabapentin 100 mg/kg s.c. twice-daily, time 0.5 h
  Mean (±SEM) von Frey Paw Withdrawal threshold following the 7th consecutive dose: 6.25 ± 0.2 g
[2]; gabapentin 100 mg/kg s.c. twice-daily, time 0.75 h
  Mean (±SEM) von Frey Paw Withdrawal threshold following the 7th consecutive dose: 7.5 ± 0.6 g
[2]; gabapentin 100 mg/kg s.c. twice-daily, time 1 h
  Mean (±SEM) von Frey Paw Withdrawal threshold following the 7th consecutive dose: 8.5 ± 0.5 g
[2]; gabapentin 100 mg/kg s.c. twice-daily, time 1.25 h
  Mean (±SEM) von Frey Paw Withdrawal threshold following the 7th consecutive dose: 9.0 ± 1.0 g
[2]; gabapentin 100 mg/kg s.c. twice-daily, time 1.25 h, listed as gabapentin
  Mean (±SEM) von Frey Paw Withdrawal threshold following the 7th consecutive dose: 9.0 (±1.0) g
[2]; gabapentin 100 mg/kg s.c. twice-daily, time 1.5 h
  Mean (±SEM) von Frey Paw Withdrawal threshold following the 7th consecutive dose: 9.0 ± 0.7 g
[2]; gabapentin 100 mg/kg s.c. twice-daily, time 2 h
  Mean (±SEM) von Frey Paw Withdrawal threshold following the 7th consecutive dose: 7.0 ± 0.4 g
[2]; gabapentin 100 mg/kg s.c. twice-daily, time 3 h
  Mean (±SEM) von Frey Paw Withdrawal threshold following the 7th consecutive dose: 6.5 ± 0.3 g
[2]; gabapentin 100 mg/kg s.c., 7 consecutive twice-daily doses
  Relief of tactile allodynia in the hindpaws: significant relief of tactile allodynia
[2]; [4]
  Mean duration of action: > 3 h
  Time of peak anti-allodynia post-dosing: 1 to 1.5 h
[2]; [5]
  Mean (±SEM) AUC (area under the normalized PWT versus time curve): 8.3 ± 0.4
  Mean (±SEM) Peak response (PWT): 9.0 ± 1.0
[2]; gabapentin 100 mg/kg s.c., after 7th consecutive twice-daily dose, 100% MPR = full reversal of tactile allodynia
  Mean (±SEM) % MPR at peak: 75.8 ± 17.2%
[2]; gabapentin s.c. 100 mg/kg, 7th consecutive twice-daily dose
  % MPR at the time of peak effect compared with vehicle: significantly greater than that for vehicle
STZ-diabetic rats [3]
  Adverse (behavioural) effects: no discernible adverse effects; also recorded: did not produce discernible adverse behavioural effects

From patent US20090042987A1, “TREATMENT OF NEUROPATHIC PAIN” (priority 2007, published 2009)
